Results from patent US5356886A, “Antiviral phosphono-alken derivatives of purines” (Beecham Group p.l.c., priority 1990, dated 1994).

Columns and labels:
Assay type in all cases: cell-based
[1] = tested on: HSV-2; test: Plaque Reduction Test for Herpes Simplex Virus 2 (strain MS) in MRC-5 cells; settings: Human alphaherpesvirus 2, MRC5
Protocol: MRC-5 cells were grown to confluence in 24 well multi-dishes (well diameter=1.5 cm). The drained cell monolayers were each infected with approximately 50 infectious particles of herpes simplex virus 1 (HSV-1; strain SC16) or herpes simplex virus 2 (HSV-2; strain MS) in 100 μl of phosphate-buffered saline. The virus was adsorbed for 1 hour at room temperature. After adsorption, residual inoculum was removed from each well and replaced with 0.5 ml of Eagle's MEM containing 5% newborn calf serum and 0.9% agarose (A37). Once the agarose had set, dilutions of the test compound, which had been prepared in Eagle's MEM (containing 5% newborn calf serum), were added, each well receiving 0.5 ml of liquid overlay. The test compound was diluted to give the following series of concentrations: 200, 60, 20, 6 . . . 0.06 μg/ml; final concentrations in the assay ranged, therefore, between 100 μg/ml and 0.03 μg/ml. The infected cultures were incubated at 37° C. in a humidified atmosphere of 5% CO2 until plaques were clearly visible (usually 1 day).
Cultures from 1 and 2 were fixed in formal saline, the agarose overlays were carefully washed off, and then the cell monolayers were stained with carbol fuchsin. A stereo microscope was used to count plaques. The IC50 (concentration of drug which inhibits the number of plaques formed by 50% relative to the number of plaques observed in virus control monolayers) of the test compound was calculated. In addition, the monolayers were examined for evidence of drug-induced cytotoxicity; the minimum concentration at which cytotoxicity occurs was recorded.

[2] = tested on: HIV; test: HIV Suppression test, viral RNA (nucleic acid hybridisation) in peripheral human lymphocytes; settings: Human immunodeficiency virus 1, Lymphocyte, 96 h; Concn. 0.1 μM; read-out: % Inhibition on Day 4 after infection, Viral RNA
Protocol: Peripheral human lymphocytes were prepared, cultivated, and harvested as above. Following the determination of the lymphocyte surface markers, unstimulated and mitogen stimulated cells were combined in a ratio of 1:2.
Under safety conditions these cells are infected with a standard preparation of HIV. The cells are sedimented by centrifugation. The supernatant was discarded and cells were resuspended in the HIV inoculum.
This inoculum is a liquid suspension of HIV-1 strain virus, pretested and adjusted to a titer that results in a synthesis of viral core protein p24 of >100 ng/ml at day four following infection of human lymphocytes according to the protocol.
3×10^8 lymphocytes were resuspended in 1 ml HIV inoculum and incubated at 37° C. for 60 minutes. Subsequently, the cells were washed two times with 50 ml of culture medium and resuspended in culture medium containing 10 units/ml of human recombinant interleukin-2 to yield a cell concentration of 2×10^6 cells/ml. 100 μof this cell suspension was added to each well of the microtiter plates containing the diluted solutions of the compounds. The microtiter plates were cultivated in an incubator with a humidified atmosphere and 5% CO2 at 37° C.
Accordingly, a fraction of lymphocytes was mock-infected with the same virus preparation that was heat inactivated (30 minutes at 56° C.) prior to infection.
On each of the days 2,3 and 4 post infection one of the microtiter plates which had been established in triplicate was prepared for determination of viral replication. Viral RNA is determined within the cells whereas the viral core protein p24 was detected in the supernatant of the lymphocyte culture.
Accordingly, 150 μl of supernatant were removed from each well and transferred to the well of a microtiter plate containing 50 μl/well of SDS (sodium dodecylsulfate, 0.08%). These plates were stored frozen. 50 μl of stop solution (1% SDS, 20 mM sodium acetate, pH 5.0, and 200 μg/ml heparin) were added to the cells remaining in each well. The plates were stored frozen.
The concentration of p24 synthesized by the HIV infected cells was determined by means of a sandwich ELISA, while the concentration of viral RNA was quantitated by nucleic acid hybridisation, using a ^32 P-labelled DNA probe for the gag/pol region of the viral genome. Absolute levels of viral antigen and RNA in drug treated samples were compared with untreated, virus-infected controls and the percentage inhibition calculated.

[3] = tested on: Visna Virus; test: CPE Inhibition Test (Established Monolayer) for Lentiviruses, visna virus (strain K184) in sheep choroid plexus cells; settings: Visna-maedi virus; visna virus strain K184, SCP cells; read-out: MIC (minimum concentration giving complete protection of the cell monolayers)
Protocol: 3×10^4 sheep choroid plexus (SCP) cells were plated into individual wells of a 96 well microtitre plate in 100 μl of Eagle's MEM with Hanks' salts containing 10% heat inactivated foetal calf serum (FCS). When monolayers had become established (after 1 or 2 days growth) they were washed with 200 μl of maintenance medium (Eagle's MEM with Hanks' salts containing 0.5% FCS) and infected with 100 μl of visna virus (strain K184) in maintenance medium (30 TCID50/ml). Test samples were diluted with maintenance medium in further 96 well microtitre plates over the range 200-0.06 μg/ml by 3-fold dilution steps. 100 μl of the diluted samples was then transferred directly onto virus-infected monolayers (final concentration range therefore 100-0.03 μg/ml) and […] containing 5% CO2 until virus-induced CPE was maximal in the untreated virus-infected controls (usually 12-14 days). The plates were fixed with formal saline and stained with crystal violet. Virus-induced CPE was then scored microscopically and the minimum concentration of sample giving complete protection of the cell monolayers (MIC) determined.

With `Nc1nc2c(ncn2OCC/C=C/P(=O)(O)O)c(=O)[nH]1` [Example 1, (E)-9-(4-phosphonobut-3-enyloxy)guanine] the IC50 [1] was under 3 mg/L, the inhibition at 0.1 µM [2] was 93% and the MIC [3] was under 0.003 mg/L.
